How the values were obtained:
[1] = tested on: SKOV3 Ovarian tumor cells; assay: Amino acid uptake assay in vitro, SKOV3 tumor cells ± transporter inhibitors; format: cell-based, human; details: 30 minutes incubation
Protocol: (§1) The tumor cells were initially grown as monolayers in T-flasks containing Dulbecco's Modified Eagle's Medium (DMEM) under humidified incubator conditions (37° C., 5% CO2/95% air). The growth media were supplemented with 10% fetal calf serum and antibiotics (10,000 units/ml penicillin and 10 mg/ml streptomycin). The growth media were replaced three times per week, and the cells were passaged so the cells would reach confluency in a week's time.
(§2) When the monolayers were confluent, cells were prepared for experimentation in the following manner. Growth media were removed from the T-flask, and the monolayer cells were exposed to 1× trypsin:EDTA for ˜1 minute to weaken the protein attachments between the cells and the flask. The flask was then slapped, causing the cells to release. Supplemented media were added to inhibit the proteolytic action of the trypsin, and the cells were aspirated through an 18 Ga needle until they were monodispersed. A sample of the cells was counted under a microscope using a hemocytometer, and the live/dead fraction estimated through trypan blue staining (>98% viability). The remainder of the cells was placed into a centrifuge tube, centrifuged at 75×g for 5 minutes, and the supernatant was removed. The cells were then resuspended in amino-acid/serum-free DMEM salts.
(§3) In this study, approximately 4.55×10^5 cells were exposed to either [^18F]10 (anti-FACBC) or [^18F]15 (syn-FACBC, 5 μCi) in 3 ml of amino acid free media ±transporter inhibitors (10 mM) for 30 minutes under incubator conditions in 12×75 mm glass vials. Each assay condition was performed in duplicate. After incubation, cells were twice centrifuged (75×g for 5 minutes) and rinsed with ice-cold amino-acid/serum-free DMEM salts to remove residual activity in the supernatant. The vials were placed in a Packard Cobra II Auto-Gamma counter, the raw counts decay corrected, and the activity per cell number determined. The data from these studies (expressed as percent uptake relative to control) were graphed using Excel, with statistical comparisons between the groups analyzed using a 1-way ANOVA (GraphPad Prism software package).
(§4) To test the hypothesis that [^18F]10 and [^18F]15 enter cells predominantly via the L-type amino acid transport system, amino acid uptake assays using cultured 9L gliosarcoma and a variety of human cancer cell lines in the presence and absence of two well-described inhibitors of amino acid transport were performed. […] The A- and L-type amino acid transport systems have been implicated in the in vivo uptake of radiolabeled amino acids used for tumor imaging.

A549 Lung tumor cells = assay: Amino acid uptake assay in vitro, A549 tumor cells ± transporter inhibitors; format: cell-based, human; details: 30 minutes incubation
Protocol: as §1, §2, §3, §4

[2] = tested on: DU145 Prostate tumor cells; assay: Amino acid uptake assay in vitro, DU145 tumor cells ± transporter inhibitors; format: cell-based, human; details: 30 minutes incubation
Protocol: as §1, §2, §3, §4

[3] = tested on: 9L gliosarcoma cells and a variety of human cancer cell lines; assay: Amino acid uptake assay in vitro as summarised in text; format: cell-based, rat; human; details: for intracellular accumulation: absence of inhibitors, after 30 minutes of incubation; for amino acid transport system used for cell entry: based on inhibition of uptake in the presence of BCH
Protocol: as §1, §2, §3, §4

U87 Glioma tumor cells = assay: Amino acid uptake assay in vitro, U87 tumor cells ± transporter inhibitors; format: cell-based, human; details: 30 minutes incubation
Protocol: as §1, §2, §3, §4

[4] = tested on: 9L gliosarcoma tumor / contralateral normal brain; assay: Rodent biodistribution in rats implanted intracranially with 9L gliosarcoma cells; format: in vivo, male Fischer rats; details: for retention of radioactivity in tumor tissue: 60 minutes after intravenous injection, intracranial 9L tumor; for Ratios of tumor uptake to normal brain uptake: at 60 and 120 minutes after intravenous injection, printed as x:1
Protocol: All animal experiments were carried out under humane conditions and were approved by the Institutional Animal Use and Care Committee (IUCAC) at Emory University. Rat 9L gliosarcoma cells were implanted into the brains of male Fischer rats. Briefly, anesthetized rats placed in a stereotactic head holder were injected with a suspension of 4×10^4 rat 9L gliosarcoma cells (1×10^7 per mL) in a location 3 mm right of midline and 1 mm anterior to the bregma at a depth of 5 mm deep to the outer table. The injection was performed over the course of 2 minutes, and the needle was withdrawn over the course of 1 minute to minimize the backflow of tumor cells. The burr hole and scalp incision were closed, and the animals were returned to their original colony after recovering from the procedure. Intracranial tumors developed that produced weight loss, apathy and hunched posture in the tumor-bearing rats, and the animals were used at 17-19 days after implantation. Of the 30 animals implanted with tumor cells, 25 developed tumors visible to the naked eye upon dissection and were used in the study. FIGS. 1-3 show the results of these studies.
The tissue distribution of radioactivity was determined in 16 normal male Fischer 344 rats (200-250 g) after intravenous injection of ˜85 μCi of [^18F]10 or [^18F]15 in 0.3 mL of sterile water. The animals were allowed food and water ad libitum before the experiment. The tail vein injections were performed in awake animals using a RTV-190 rodent restraint device (Braintree Scientific) to avoid mortality accompanying anesthesia in the presence of an intracranial mass. Groups of four rats were killed at 5 minutes, 30 minutes, 60 minutes and 120 minutes after injection of the dose. The animals were dissected, and selected tissues were weighed and counted along with dose standards in a Packard Cobra II Auto-Gamma Counter. The raw counts were decay corrected, and the counts were normalized as the percent of total injected dose per gram of tissue (% ID/g). A comparison of the uptake of activity in tumor tissue, […] at each time point was analyzed using a 1-way ANOVA (GraphPad Prism software package). FIGS. 1-3 below show the results of these studies.

[5] = tested on: MB 468 Breast tumor cells; assay: Amino acid uptake assay in vitro, MB 468 tumor cells ± transporter inhibitors; format: cell-based, human; details: 30 minutes incubation
Protocol: as §1, §2, §3, §4

| Compound | Uptake in tumor cells expressed as percent uptake relative to control ([1]; SKOV3, BCH 10 mM) [%] | Uptake in tumor cells expressed as percent uptake relative to control ([1]; SKOV3, MeAIB 10 mM) [%] | Uptake in tumor cells expressed as percent uptake relative to control ([1]; SKOV3, no inhibitor) [%] | Uptake in tumor cells expressed as percent uptake relative to control (A549 Lung tumor cells; A549, BCH 10 mM) [%] | Uptake in tumor cells expressed as percent uptake relative to control (A549 Lung tumor cells; A549, MeAIB 10 mM) [%] | Uptake in tumor cells expressed as percent uptake relative to control (A549 Lung tumor cells; A549, no inhibitor) [%] | Uptake in tumor cells expressed as percent uptake relative to control ([2]; DU145, BCH 10 mM) [%] | Uptake in tumor cells expressed as percent uptake relative to control ([2]; DU145, MeAIB 10 mM) [%] | Uptake in tumor cells expressed as percent uptake relative to control ([2]; DU145, no inhibitor) [%] | intracellular accumulation [3] | amino acid transport system used for cell entry [3] | Uptake in tumor cells expressed as percent uptake relative to control (U87 Glioma tumor cells; U87, BCH 10 mM) [%] | Uptake in tumor cells expressed as percent uptake relative to control (U87 Glioma tumor cells; U87, MeAIB 10 mM) [%] | Uptake in tumor cells expressed as percent uptake relative to control (U87 Glioma tumor cells; U87, no inhibitor) [%] | retention of radioactivity in tumor tissue [4] | Ratios of tumor uptake to normal brain uptake [4] | Uptake in tumor cells expressed as percent uptake relative to control ([5]; MB 468, BCH 10 mM) [%] | Uptake in tumor cells expressed as percent uptake relative to control ([5]; MB 468, MeAIB 10 mM) [%] | Uptake in tumor cells expressed as percent uptake relative to control ([5]; MB 468, no inhibitor) [%] |
| --- | --- | --- | --- | --- | --- | --- | --- | --- | --- | --- | --- | --- | --- | --- | --- | --- | --- | --- | --- |
| NC1(C(=O)O)CC([18F])C1 (stereo not drawn) [Anti-[^18F]FACBC, trans-(anti-) 1-amino-3-[^18F]fluorocyclobutane-1-carboxylic acid] | 1.44 | 6.39 | 4.68 | 2.69 | 11.02 | 12.17 | 4.16 | 13.90 | 16.06 | 0.43 % of the initial dose per million cells | substrates for the L-type amino acid transport system | 1.51 | 3.45 | 3.41 | high | 6.5 | 4.43 | 14.80 | 15.51 |
| N[C@]1(C(=O)O)C[C@H]([18F])C1 [Syn-[^18F]FACBC, syn-[^18F]1-amino-3-fluorocyclobutane-1-carboxylic acid] | 5.87 | 8.48 | 11.67 | 3.85 | 9.61 | 11.91 | 9.11 | 17.16 | 20.27 | 0.50 % of the initial dose per million cells | substrates for the L-type amino acid transport system | 5.00 | 14.80 | 24.77 | high | 5.3 | 10.93 | 28.25 | 33.53 |

Reference: US20060292073A1, “Stereoselective Synthesis of Amino Acid Analogs for Tumor Imaging” (priority 2005, published 2006)
